Experimental data from paper PMC6658998, “Pharmacological characterization of the seven human NOX isoforms and their inhibitors” (Redox Biology, 2019).

Experiments:
NOX5 = target: NOX5; set-up: method as in PMID 27273790; settings: documented values, measured using Amplex Red/HRP assay; cited from earlier work
human NOX4 = target: T1, human NOX4 (Homo sapiens, UniProt Q9NPH5); experiment: WST-1 O2•- detection in tetracycline-induced NOX4 HEK293 T-REx cells; type: cell-based; settings: NOX4 expressing cells, concentration-response
T1 sequence (Q9NPH5 1-578): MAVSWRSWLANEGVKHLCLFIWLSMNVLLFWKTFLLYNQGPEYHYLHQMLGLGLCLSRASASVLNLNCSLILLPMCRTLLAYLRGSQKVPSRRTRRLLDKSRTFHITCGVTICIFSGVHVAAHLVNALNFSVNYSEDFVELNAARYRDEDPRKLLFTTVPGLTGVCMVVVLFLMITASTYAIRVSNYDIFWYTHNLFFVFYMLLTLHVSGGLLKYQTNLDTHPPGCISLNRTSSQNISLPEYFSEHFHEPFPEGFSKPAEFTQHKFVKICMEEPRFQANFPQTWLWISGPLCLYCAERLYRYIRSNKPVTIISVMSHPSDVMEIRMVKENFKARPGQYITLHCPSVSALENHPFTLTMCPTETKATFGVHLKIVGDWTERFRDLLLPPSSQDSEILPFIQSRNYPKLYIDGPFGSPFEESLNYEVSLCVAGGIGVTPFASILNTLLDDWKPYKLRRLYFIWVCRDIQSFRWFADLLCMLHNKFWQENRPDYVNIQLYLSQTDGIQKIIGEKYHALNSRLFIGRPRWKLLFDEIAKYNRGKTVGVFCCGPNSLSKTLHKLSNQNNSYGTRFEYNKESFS
T1 sequence (P13498 1-195 partner): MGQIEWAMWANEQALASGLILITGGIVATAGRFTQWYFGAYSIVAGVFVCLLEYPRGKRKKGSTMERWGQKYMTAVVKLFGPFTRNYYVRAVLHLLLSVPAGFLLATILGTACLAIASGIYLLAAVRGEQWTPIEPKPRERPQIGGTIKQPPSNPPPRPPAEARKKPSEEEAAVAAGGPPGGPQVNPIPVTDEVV

human NOX1 = target: T2, human NOX1 (Homo sapiens, UniProt Q9Y5S8); experiment: WST-1 O2•- detection in NOX1-expressing CHO cells; type: cell-based; settings: NOX1 expressing cells, concentration-response
T2 construct: expressed in transfected cells; host or cells: CHO
T2 sequence (Q9Y5S8 1-564): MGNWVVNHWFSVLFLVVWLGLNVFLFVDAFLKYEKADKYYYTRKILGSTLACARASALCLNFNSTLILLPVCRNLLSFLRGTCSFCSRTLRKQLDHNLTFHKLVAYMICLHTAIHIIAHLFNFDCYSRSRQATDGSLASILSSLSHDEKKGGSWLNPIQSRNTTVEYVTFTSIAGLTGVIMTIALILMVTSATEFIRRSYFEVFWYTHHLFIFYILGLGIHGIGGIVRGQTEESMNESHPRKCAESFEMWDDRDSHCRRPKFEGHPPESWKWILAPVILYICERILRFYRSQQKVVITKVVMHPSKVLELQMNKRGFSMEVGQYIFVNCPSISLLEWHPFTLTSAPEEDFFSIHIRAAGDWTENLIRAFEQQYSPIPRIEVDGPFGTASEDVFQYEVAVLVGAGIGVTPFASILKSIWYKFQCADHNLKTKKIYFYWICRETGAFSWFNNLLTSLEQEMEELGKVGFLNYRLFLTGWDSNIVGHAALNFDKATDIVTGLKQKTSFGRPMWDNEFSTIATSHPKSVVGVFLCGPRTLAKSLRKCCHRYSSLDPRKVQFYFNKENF
T2 sequence (P13498 1-195 partner): T1 sequence (P13498 1-195 partner)

[1] = Cell-free Amplex Red/HRP assay with 10 μM H2O2 (H2O2 scavenging / HRP inhibition); settings: H2O2 alone
NOX1 = target: NOX1; set-up: method as in PMID 27273790; settings: documented values, measured using Amplex Red/HRP assay; cited from earlier work

- Activity on NOX4 in the WST-1 assay (human NOX4): inactive
- Activity on NOX1 in the WST-1 assay (human NOX1): inactive
SMILES: CN(C)c1cccc(-c2c3c(=O)n(-c4ccccc4Cl)[nH]c3cc(=O)n2C)c1 [GKT137831]
- Ki NOX5 (NOX5): nanomolar range
- Effect on Amplex red/HRP signal in the presence of H2O2 alone [1]: inhibits the Amplex red/HRP signal
- Ki NOX1 (NOX1): nanomolar range
